Reference: patent publication US12583851B2, “Heteroaryl-substituted pyrazine derivatives as pesticides” (Elanco Animal Health GmbH, priority 2019, dated 2026)

Legend:
Assay type in all cases: in vivo
[1] = system: Rhipicephalus (Boophilus) microplus larvae (strain Parkhurst, resistant against synthetic pyrethroids); assay: Rhipicephalus (Boophilus) microplus in-vitro contact test, larval cattle tick; details: after 48 hours, read-out: efficacy (larvae dead or moribund); for pest or weed control at 1 µg/cm2, 100 g/ha: 1 μg/cm^2 (=100 g/ha); for pest or weed control at 5 µg/cm2, 500 g/ha: 5 μg/cm^2 (=500 g/ha)
How it was run: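 Acetone solutions were coated onto glass tube walls (900 ppm gives 5 μg/cm²); after drying, 20–50 pyrethroid-resistant Parkhurst larvae added and held at 27 °C, 85% RH. At 48 h, efficacy as % larvae dead or moribund, judged by loss of negative geotaxis.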

[2] = system: adult unfed cat fleas (Ctenocephalides felis); assay: Ctenocephalides felis oral test; details: 48 h, 100 ppm in citrated cattle blood, after 2 days
Description: Ctenocephalides felis—Oral Test
(§1) Solvent: dimethyl sulfoxide
To produce a suitable preparation of active compound, 10 mg of active compound are dissolved in 0.5 mL solvent, and the concentrate is diluted with citrated cattle blood to the desired concentration.
Approximately 20 adult unfed cat fleas (Ctenocephalides felis) are placed in a flea chamber whose top and bottom is covered with gauze. A chamber whose bottom is sealed with parafilm, is filled with the blood-compound solution and placed on top of the flea chamber, so that the fleas can suck the blood. The blood chamber is heated to 37° C. whereas the flea chamber is kept at room temperature.
After 2 days mortality in % is determined. 100% means all the fleas have been killed; 0% means none of the fleas have been killed.

[3] = system: larvae of the banded cucumber beetle (Diabrotica balteata); assay: Diabrotica balteata spray test; details: 168 h, after 7 days, read-out: efficacy (seedling growth); for pest or weed control at 32 µg/disc, 100 g/ha: 100 g/ha (=32 μg/well); for pest or weed control at 6.4 µg/disc, 20 g/ha: 20 g/ha (=6.4 μg/well)
How it was run: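 Germinated wheat seedlings (5 per well, on agar) sprayed with compound in acetone/DMF with emulsifier-containing water, then infested with 10–20 Diabrotica balteata larvae. Efficacy (%) scored after 7 days from seedling growth: 100% = growth as untreated uninfested control, 0% = no seedlings grown.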

[4] = system: fall armyworm larvae (Spodoptera frugiperda); assay: Spodoptera frugiperda spray test; details: 168 h, maize leaf sections, after 7 days
How it was run: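 Compound dissolved in acetone/dimethylformamide, diluted in water containing 1000 ppm alkylarylpolyglycol ether emulsifier and sprayed onto maize leaf sections. Dried sections were infested with larvae; % mortality scored after 7 days (100% = all caterpillars killed, 0% = none).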

[5] = system: adult engorged female ticks (Rhipicephalus microplus); assay: Rhipicephalus (Boophilus) microplus injection test; details: 168 h, 4 μg/animal, egg deposition after 7 days, read-out: efficacy (infertile eggs)
Description: Rhipicephalus (Boophilus) microplus—Injection Test
as §1
To produce a suitable preparation of active compound, 10 mg of active compound are dissolved in 0.5 mL solvent, and the concentrate is diluted with solvent to the desired concentration.
Five adult engorged female ticks (Rhipicephalus microplus) are injected with 1 μL compound solution into the abdomen. The ticks are transferred into replica plates and incubated in a climate chamber.
After 7 days egg deposition of fertile eggs is monitored. Eggs where fertility is not visible are stored in a climate chamber till hatching after about 42 days. An efficacy of 100% means all eggs are infertile; 0% means all eggs are fertile.

[6] = system: adult cat fleas (Ctenocephalides felis); assay: Ctenocephalides felis in-vitro contact test, adult cat flea; details: after 48 hours, read-out: efficacy (fleas dead or moribund); for pest or weed control at 1 µg/cm2, 100 g/ha: 1 μg/cm^2 (=100 g/ha); for pest or weed control at 5 µg/cm2, 500 g/ha: 5 μg/cm^2 (=500 g/ha)
Description: Ctenocephalides felis—In-Vitro Contact Tests Adult Cat Flea
(§2) 9 mg compound is solved in 1 ml acetone and diluted with acetone to the desired concentration. 250 μL of the test solution is filled in 25 mL glass test tubes and homogeneously distributed on the inner walls by rotation and tilting on a shaking device (2 h at 30 rpm). With a compound concentration of 900 ppm, an inner surface of 44.7 cm^2 and a homogeneous distribution, a dose of 5 μg/cm^2 is achieved.
(§3) After the solvent has evaporated, each test tube is filled with 5-10 adult cat fleas (Ctenocephalides felis), closed with a perforated lid and incubated in a lying position at room temperature and relative humidity. After 48 hours efficacy is determined. The fleas are patted on the ground of the tubes and are incubated on a heating plate at 45-50° C. for at most 5 minutes Immotile or uncoordinated moving fleas, which are not able to escape the heat by climbing upwards, are marked as dead or moribund.
An efficacy of 100% means all fleas are dead or moribund; 0% means no fleas are dead or moribund.

[7] = system: adult brown dog ticks (Rhipicephalus sanguineus); assay: Rhipicephalus sanguineus in-vitro contact test, adult brown dog ticks; details: 48 h, 5 μg/cm^2 (=500 g/ha), after 48 hours, read-out: efficacy (ticks dead or moribund)
Description: Rhipicephalus sanguineus—In-Vitro Contact Tests with Adult Brown Dog Ticks
as §2, with “mL” for “ml”, “[…]” for “250 μL”
as §3, with “brown dog ticks (Rhipicephalus sanguineus),” for “cat fleas (Ctenocephalides felis),”, “ticks” for “fleas”, “ticks,” for “fleas,”
An efficacy of 100% means all ticks are dead or moribund; 0% means no ticks are dead or moribund.

Row | SMILES | pest or weed control at 1 µg/cm2, 100 g/ha [1] | mortality at 100 ppm [2] | pest or weed control at 32 µg/disc, 100 g/ha [3] | mortality at 100 g/ha [4] | pest or weed control at 0.004 mg [5] | pest or weed control at 6.4 µg/disc, 20 g/ha [3] | pest or weed control at 5 µg/cm2, 500 g/ha [1] | pest or weed control at 1 µg/cm2, 100 g/ha [6] | pest or weed control at 5 µg/cm2, 500 g/ha [6] | pest or weed control at 5 µg/cm2, 500 g/ha [7]
1 | CC(NC(=O)c1cc(Cl)cc(C(F)(F)F)c1)c1nccnc1-c1ccccn1 (racemic) [Example I-1, (rac)-3-Chloro-N-{1-[3-(pyridin-2-yl)pyrazin-2-yl]ethyl}-5-(trifluoromethyl)benzamide] | 100% | 90% | 100% | 100% |  |  |  |  |  | 
2 | CC(NC(=O)c1cc(Cl)cc(C(F)(F)F)c1)c1nccnc1-c1nccs1 (racemic) [Example I-3, (rac)-3-Chloro-N-(1-(3-(thiazol-2-yl)pyrazin-2-yl)ethyl)-5-(trifluoromethyl)benzamide] |  | 90% | 100% |  | 100% | 80% |  |  |  | 
3 | CC(NC(=O)c1cc(C(F)(F)F)cc(C(F)(F)F)c1)c1nccnc1-c1nccs1 (racemic) [Example I-5, (rac)-N-(1-(3-(Thiazol-2-yl)pyrazin-2-yl)ethyl)-3,5-bis(trifluoromethyl)benzamide] | 100% | 90% | 80% |  | 80% |  | 100% |  |  | 
4 | CC(NC(=O)c1cncc(C(C)(C)C)c1)c1nccnc1-c1ncccn1 (racemic) [Example I-11, (rac)-5-(tert-Butyl)-N-(1-(3-(pyrimidin-2-yl)pyrazin-2-yl)ethyl)nicotinamide] |  | 90% |  |  |  |  | 100% |  |  | 
5 | CC(NC(=O)c1cc(Br)cc(OC(F)(F)F)c1)c1nccnc1-c1nccs1 (racemic) [Example I-53, (rac)-3-Bromo-N-{1-[3-(1,3-thiazol-2-yl)pyrazin-2-yl]ethyl}-5-(trifluoromethoxy)benzamide] |  |  | 100% |  | 80% | 80% |  |  |  | 
6 | CC(NC(=O)c1cc(C#N)cc(C(F)(F)F)c1)c1nccnc1-c1nccs1 (racemic) [Example I-56, (rac)-3-Cyano-N-{1-[3-(1,3-thiazol-2-yl)pyrazin-2-yl]ethyl)-5-(trifluoromethyl)benzamide] |  |  | 100% | 100% | 100% | 100% |  |  |  | 
7 | CC(NC(=O)c1cc(C(F)(F)F)cc(C(F)(F)F)c1)c1nccnc1-c1ncc(C(=O)N2CCCCC2)s1 (racemic) [Example I-64, (rac)-N-[1-{3-[5-(Piperidine-1-carbonyl)-1,3-thiazol-2-yl]pyrazin-2-yl}ethyl]-3,5-bis(trifluoromethyl)benzamide] | 100% |  |  |  | 100% |  | 100% | 100% | 100% | 100%
8 | CC(NC(=O)c1cc(C(F)(F)F)cc(C(F)(F)F)c1)c1nccnc1-c1ncc(C(=O)N2C[C@@H](C)O[C@@H](C)C2)s1 (mixture of isomers) [Example I-66, (rac)-N-[1-(3-{5-[(cis)-2,6-Dimethylmorpholine-4-carbonyl]-1,3-thiazol-2-yl}pyrazin-2-yl)ethyl]-3,5-bis(trifluoromethyl)benzamide] | 100% |  | 100% | 100% | 80% | 100% | 100% | 100% | 100% | 80%
9 | CC(NC(=O)c1cc(Cl)cc(S(C)(=O)=O)c1)c1nccnc1-n1cc(C#N)cn1 (racemic) [Example I-103, (rac)-3-Chloro-N-{1-[3-(4-cyano-1H-pyrazol-1-yl)pyrazin-2-yl]ethyl}-5-(methanesulfonyl)benzamide] | 90% |  | 100% | 100% |  | 100% | 90% |  | 80% | 80%
10 | CC(NC(=O)c1cc(Cl)cc(OC(F)(F)F)c1)c1nccnc1-c1ccccn1 (stereo not drawn) [Example I-12] |  | 100% | 100% | 83% |  | 100% |  |  |  | 
11 | CC(NC(=O)c1cc(C(F)(F)F)cc(C(F)(F)F)c1)c1nccnc1-c1ccccn1 (stereo not drawn) [Example I-13] | 100% | 90% | 80% | 100% | 80% | 100% | 100% |  |  | 
12 | CC(NC(=O)c1cc(Cl)cc(Br)c1)c1nccnc1-c1ccccn1 (stereo not drawn) [Example I-14] | 90% | 100% | 80% |  | 80% | 80% | 80% |  |  | 
13 | CC(NC(=O)c1cc(C#N)cc(C(F)(F)F)c1)c1nccnc1-c1ccccn1 (stereo not drawn) [Example I-15] | 80% | 100% | 100% |  | 80% |  | 80% |  |  | 
14 | CC(NC(=O)c1cc(Br)cc(C#N)c1)c1nccnc1-c1ccccn1 (stereo not drawn) [Example I-16] |  | 100% | 100% |  |  |  |  |  |  | 80%
15 | CC(NC(=O)c1cc(Cl)cc(OC(F)(F)F)c1)c1nccnc1-c1ccc(Cl)cn1 (stereo not drawn) [Example I-21] |  |  | 100% | 100% | 80% | 100% |  |  |  | 
16 | CC(NC(=O)c1cc(Cl)cc(C#N)c1)c1nccnc1-c1ccc(Cl)cn1 (stereo not drawn) [Example I-23] |  | 100% |  | 100% | 100% |  |  |  |  | 
17 | CC(NC(=O)c1cc(C#N)cc(C(F)(F)F)c1)c1nccnc1-c1ccc(Cl)cn1 (stereo not drawn) [Example I-25] |  | 90% | 100% | 100% | 80% | 100% |  |  |  | 
